Laboratory results published in patent publication US20250270165A1, “COMPOSITIONS FOR AND METHODS OF MODULATING RNA STABILITY” (Duke University, priority 2022, published 2025).
Several values for one entry are separate records, joined by “and”; a condition that tells them apart may be missing. Equal values may be shown once. Entries after “also recorded” stand apart in the source; their conditions may differ. Read-outs that look alike come from different tables or passages of the source.

Key:
MALAT1 triple helix [1] = assay: RiboGreen indicator displacement assay (IDA); format: binding, human
Protocol: Indicator Displacement Assay (DIA).
The protocol was adapted from a previously reported procedure. (Donlic A, et al. (2020) Nucleic Acids Res. 48(14):7653-7664). A serial dilution of the MALAT1 triple helix RNA was performed in HEPES buffer (20 mM HEPES-KOH, 52.6 mM KCl. 0.1 mM MgCl2, pH=7.4) in a 96 well plate in triplicate. […] of each dilution were transferred to a 384 well plate followed by […] of a 500 nM solution of RiboGreen dye in the same buffer (Invitrogen™). The plates were excited at 487 nm (8 nm slit) and emission was recorded at 530 nm (8 nm slit, focal height 11.3 mm) using a CLARIOstar plate reader (BMG labtech). The affinity of the dye for the RNA construct was determined by fitting the raw fluorescence in GraphPad Prism version 8.3.1 for Macintosh (GraphPad Software, La Jolla California USA, (www.graphpad.com)) by fitting to the Log[Agonist]vs. response-variable slope model that using Equation (1) below.
where Y is normalized % change in fluorescence intensity, X is RNA concentration, Bottom is lowest fluorescence % change and Top is highest fluorescence % change. Affinity of the dye for the RNA construct was used as the ideal RNA concentration (174 nM) for small molecule titrations.
A serial dilution of small molecule (0, 0.5 μM, […], 2.5 μM, […], 7.5 μM, 10.0 μM, 12.5 μM, 25 μM, 50 μM, 75 μM, 100 μM, 125 µM, 150 µM, 250 μM, 500 µM) was performed in HEPES buffer (20 mM HEPES-KOH, 52.6 mM KCl, 0.1 mM MgCl2, pH=7.4) in a 96 well plate in triplicate. Then, 8 μL of each dilution were transferred to a 384 well plate, followed by 8 μL of a 174 nM solution of MALAT1 RNA and 0.5 mM of RiboGreen™ (Invitrogen™). The RNA was previously annealed by heating to 95° C. for 5 minutes and cooling to 0° C. on ice for 30 minutes. The 384 well plates were shaken for 5 minutes, centrifuged at 4000 rpm for 1 minute, and incubated in the dark for 20 minutes. The plates were excited at 487 nm (8 nm slit) and emission was read at 525 nm (8 nm slit, focal height […]) using a CLARIOstar plate reader (BMG Labtech). Percent fluorescence indicator displacement (% FID) was calculated by subtracting and, subsequently, dividing by the blank wells with RNA-dye complex and no small molecule as shown in Equation (2).
Where F0 is the fluorescence of the blank well with RNA+dye and no small molecule and F is the fluorescence of the well with all three components (RNA+dye+small molecule).
Each technical triplicate was averaged, and the resulting FID values were averaged between three independent experiments. The binding curve and Log(CD50) value was obtained by using a non-linear fit curve (Log[Agonist]vs. response) with variable slope at four parameters (GraphPad Prism Software version for Macintosh 8.3.1, La Jolla, California, USA (www.graphpadprism.com)) as shown in Equation 1. Reported values are averages of three independent experiments standard deviation.

MALAT1 triple helix [2] = assay: Differential scanning fluorimetry (DSF), triplex thermal stability; format: binding, human
Protocol: Differential Scanning Fluorimetry. Differential scanning fluorimetry experiments were performed as previously reported. (Donlic A, et al. (2020) Nucleic Acids Res. 48(14):7653-7664). All experiments were performed in white 96 well plates in a LightCycler® 96 (Roche). In a typical experiment, 4 μM of RNA was annealed in the same buffer used for indicator displacement assays (20 mM HEPES-KOH, 52.6 mM KCl, 0.1 mM MgCl2, pH=7.4) by heating at 95° C. for 3 minutes, snap-cooling on ice for 10 minutes, and leaving the solution at room temperature for 1 hr. Then, 42 μL of this solution was aliquoted to wells and 5 μM of ligand was added (2.5 μL of water, 2.0 μL of DMSO, 0.5 μL of 500 μM small molecule stock). The mixture was left to incubate at room temperature for 5 minutes, after which 3 μL of a 20 µM Quant-iT™ RiboGreen™ (ThermoFisher Scientific) dye stock solution in appropriate buffer was added to each well. The 96 well plate was then sealed with an optically clear foil and centrifuged for 1 minute at 4000 rpm prior to being placed in the instrument. The light cycler program was created by selecting the melting curve method; fluorescence intensity was monitored using the SYBR Green I/HRM dye filter combination (465-510 nm) from 37-98° C. at a ramp rate of 0.01° C./second with 150 acquisitions per ° C. Melting profiles were obtained by Tm analysis in the LightCycler® 96 software (SW 1.1).

MALAT1 triple helix [3] = assay: RNase A enzymatic degradation assay; format: biochemical, human; conditions: for stabilizing or destabilizing compound as listed in the description: listing in an aspect, degradation in an enzymatic assay versus control
Protocol: RNase A Enzymatic Degradation Assay.
The procedure was adapted from a published protocol for exonucleolytic enzymatic degradation assay. (Donlic A, et al. (2020) Nucleic Acids Res. 48(14):7653-7664). The MALAT1 destabilizing small molecules published by Le Grice (Abulwerdi F A, et al. (2019) ACS Chem Biol. 14(2):223-235) and co-workers SM5 and SM16 were purchased from ChemBridge. For a typical 70 μL reaction, […] of MALAT1 triple helix RNA was annealed in the same buffer used for IDA and DSF experiments (20 mM HEPES-KOH, 52 mM KCl, 0.1 mM MgCl2, pH=7.4) by heating at 95° C. for 3 minutes, snap-cooling on ice for 10 minutes, and leaving the solution at room temperature for 1 hr.
RNase A enzyme (ThermoFisher) was diluted to 1.46 nM and incubated with 1 M NaCl for 30-35 minutes to achieve ssRNA selectivity as reported. (Struhl K, et al. (1989) Current Protocols in Molecular Biology. 8(1):3.13.1-3.13.3). Next, the RNA was mixed with […] of a CC-rich DNA duplex, 0.2 mM of small molecule/DMSO and incubated at room temperature for 20 minutes. Following the incubation, […] of RNase A was added, and the reaction was incubated at 37° C. for 1 hour in a thermal cycler with a heated lid (Eppendorf). 4 μL timepoint aliquots were taken at 0, 5, 10, 30, and 60 minutes, 4 μL of 2×RNA loading dye was added to each aliquot (ThermoFischer Scientific), and samples were stored at −80° C. prior to gel analysis. Reactions were analyzed on pre-cast 15% PAGE-Urea gels (Invitrogen) in 1×TBE buffer. Aliquots were thawed from −80° C. storage and heated to 95° C. for 15 minutes prior to gel loading and […] were loaded in each well. Gels were run for 45 minutes at 180 V, stained with Diamond™ Nucleic Acid dye (Promega), and visualized on an iBright 500 (ThermoFisher). DMSO controls were ran with every set of 4 small molecules to ensure consistency of enzyme activity and RNA integrity. Gel band intensity of the MALAT1 triple helix and DNA loading control were quantified using ImageJ software. (Rueden C T, et al. (2017) BMC Bioinformatics. 18(1):529).
To quantify time-dependent endonucleolytic degradation for each sample, the intensity was normalized using Equation (3), and fold-difference was calculated as listed in Equation (4) as previously reported. (Donlic A, et al. (2020) Nucleic Acids Res. 48(14):7653-7664).
where y is fold-difference of the exonucleolytic degradation for the specific sample, with normalized areas for its specific time point x and time point 0 calculated as described in Equation (3). Percent RNA degraded was calculated for every time point using Equation (5).
% RNA degraded=(Normalized area (t0)−Normalized area (tx))*100 (Equation 5)
Experimental results shown in FIG. 6C are plotted as three independent replicates and standard deviation between replicates as error bars. Relative fold change between treated condition and DMSO was calculated from Equation (6).

LNCaP cells = assay: MTT assay in LNCaP cells; format: cell-based, human; conditions: for IC50: Homo sapiens
From the text: The MTT reagent (3-(4,5-dimethylthiazol-2-yl)-2,5-diphenyl-2H-tetrazolium bromide) is a mono-tetrazolium salt that consists of a positively charged quaternary tetrazole ring core containing four nitrogen atoms surrounded by three aromatic rings including two phenyl moieties and one thiazolyl ring. Reduction of MTT results in disruption of the core tetrazole ring and the formation of a violet-blue water-insoluble molecule called formazan. The MTT reagent can pass through the cell membrane as well as the mitochondrial inner membrane of viable cells presumably due to its positive charge as well as its lipophilic structure and is reduced to formazan by metabolically active cells. The chromogenic nature of this redox chemical reaction provides a colorimetric-based measurement of intracellular formazan production based on which the MTT assay was developed. Consequently, the assay has extensive utility as a cell metabolic activity assay.
In the first set of […] experiments, four (4) members of the small molecule library were examined in a MTT assay. […] The IC50 values and trends were similar to the apparent small molecule affinities for MALAT-1, supporting a MALAT-1 related mechanism for the toxicity. […] Ongoing cytotoxicity studies using other DMZ small molecule analogs (as well as DMZ-5, DMZ-P13, and DMZ-P17) continue to illuminate mechanism of action regarding toxicity to cancer cells.

[4] = 48 hours, read-out: IC50 at 48 hours
[5] = 5-minute time point, relative to DMSO control

Question: With N=C(NCCc1cccnc1)c1cccc(/N=N/Nc2cccc(C(=N)NCCc3cccnc3)c2)c1 [DMZ-M3] as the molecule, how does the “affinity for the MALAT1 triple helix (IDA), in words” value (“affinity for the MALAT1 triple helix” below) (MALAT1 triple helix [1]) read?
Answer: moderate affinity

Question: What about the “effect on MALAT1 triplex thermal stability (DSF), in words” value (MALAT1 triple helix [2]) of the same molecule?
Answer: negligible thermal stabilization

Question: With N=C(NCc1ccc(Cl)cc1)c1ccc(/N=N/Nc2ccc(C(=N)NCc3ccc(Cl)cc3)cc2)cc1 [DMZ-P5] as the molecule, how does the “fold higher affinity with the para scaffold versus the ortho scaffold (DMZ-O5)” value (MALAT1 triple helix [1]; subunit R-5) read?
Answer: 13 fold

Question: Which “stabilizing or destabilizing compound as listed in the description” value (“stabilizing or destabilizing compound” below) (MALAT1 triple helix [3]) does the source give for CN(C)c1ccc(CN2CCC(CCNC(=N)c3ccc(/N=N/N(C)c4ccc(C(=N)NCCC5CCN(Cc6ccc(N(C)C)cc6)CC5)cc4)cc3)CC2)cc1 [DMZ-NMe-P38] here?
Answer: destabilizing

Question: CN(/N=N/c1ccc(C(=N)NCCC2CCN(Cc3ccccc3)CC2)nc1)c1ccc(C(=N)NCCC2CCN(CC3C=CC=CC3)CC2)nc1 (stereo not shown) [DMZ-NMe-mPy-P1] was tested. Which “stabilizing or destabilizing compound” value (MALAT1 triple helix [3]) did it give?
Answer: destabilizing

Question: With N=C(NCc1ccco1)c1cccc(/N=N/Nc2cccc(C(=N)NCc3ccco3)c2)c1 [DMZ-M15] as the molecule, how does the “affinity for the MALAT1 triple helix” value (MALAT1 triple helix [1]) read?
Answer: moderate affinity

Question: And the “stabilizing or destabilizing compound” value (MALAT1 triple helix [3])?
Answer: stabilizing; also recorded: destabilizing

Question: And the “effect on MALAT1 triplex thermal stability (DSF), in words” value (MALAT1 triple helix [2])?
Answer: negligible thermal stabilization

Question: How did the IC50 (LNCaP cells; [4]) turn out when N=C(NCc1ccc(-c2ccccc2)cc1)c1cccc(/N=N/Nc2cccc(C(=N)NCc3ccc(-c4ccccc4)cc3)c2)c1 [DMZ-M7] was run?
Answer: 2900 nM

Question: How did the IC50 (LNCaP cells; [4]) turn out when N=C(NCCC1CCN(Cc2ccccc2)CC1)c1ccc(/N=N/Nc2ccc(C(=N)NCCC3CCN(Cc4ccccc4)CC3)cc2)cc1 [DMZ-P13] was run?
Answer: 4100 nM

Question: And the IC50 (LNCaP cells; 72 hours, read-out: IC50 at 72 hours)?
Answer: 2700 nM

Question: N=C(NCc1ccc(Cl)cc1)c1ccccc1/N=N/Nc1ccccc1C(=N)NCc1ccc(Cl)cc1 [DMZ-O5] was tested. Which “stabilizer or destabilizer of MALAT1 triplex (RNase A degradation)” value (MALAT1 triple helix [3]; [5]) did it give?
Answer: much stronger destabilizing effect than DMZ-P5

Question: How did the “stabilizing or destabilizing compound” value (MALAT1 triple helix [3]) turn out when CCN(CCCCNC(=N)c1ccc(N/N=N/c2ccc(C(=N)NCCCN(CC)Cc3ccccc3)cc2)cc1)Cc1ccccc1 [DMZ-P14] was run?
Answer: stabilizing; also recorded: destabilizing

Question: What does the source list for N=C(NCc1ccccc1)c1cccc(/N=N/Nc2cccc(C(=N)NCc3ccccc3)c2)c1 [DMZ-M4]?
Answer: affinity for the MALAT1 triple helix (IDA), in words (MALAT1 triple helix [1]): mediocre affinity; CD50 (50% competitive displacement dose) (MALAT1 triple helix [1]; 16-point titration, 20 mM HEPES-KOH, 52 mM KCl, 0.1 mM MgCl2, pH 7.4): 36.6 µM; increase of the amount of MALAT1 degraded at 5 minutes (MALAT1 triple helix [3]; 5-minute time point): 2 fold and > 2 fold; stabilizer or destabilizer of MALAT1 triplex (RNase A degradation) (MALAT1 triple helix [3]; [5]): destabilizers; effect on MALAT1 triplex thermal stability (DSF), in words (MALAT1 triple helix [2]): increases in thermal stability; also recorded: mediocre affinity and thermal stabilization

Question: Which “stabilizing or destabilizing compound” value (MALAT1 triple helix [3]) does the source give for N=C(NCc1ccccc1Cl)c1ccccc1/N=N/Nc1ccccc1C(=N)NCc1ccccc1Cl [DMZ-O6] here?
Answer: destabilizing; also recorded: stabilizing

Question: With CN1CCN(CCNC(=N)c2cccc(/N=N/Nc3cccc(C(=N)NCCN4CCN(C)CC4)c3)c2)CC1 [DMZ-M10] as the molecule, how does the “IC50 relative to other tested library members, in words” value (LNCaP cells) read?
Answer: higher IC50

Question: How did the “affinity for the MALAT1 triple helix” value (MALAT1 triple helix [1]) turn out when N=C(NCc1ccccc1)c1ccccc1/N=N/Nc1ccccc1C(=N)NCc1ccccc1 [DMZ-O4] was run?
Answer: no affinity

Question: What does the source list for CN(C)CCCNC(=N)c1ccc(/N=N/Nc2ccc(C(=N)NCCCN(C)C)cc2)cc1 [DMZ-P1]?
Answer: graded stabilizer/destabilizer class (change in degradation) (MALAT1 triple helix [3]; [5]): weak destabilizer (weak destabilizer (<50% increase in degradation)); stabilizer or destabilizer of MALAT1 triplex (RNase A degradation) (MALAT1 triple helix [3]; [5]): destabilizers; effect on MALAT1 triplex thermal stability (DSF), in words (MALAT1 triple helix [2]): increases in thermal stability; effect on Tm1 (ΔTm1) (MALAT1 triple helix [2]; equimolar ratio of RNA:small molecule, compared to DMSO vehicle): approximately 6.1 °C
